Test results published in ChEMBL document CHEMBL1909046, “DrugMatrix in vitro pharmacology data”.

Key:
Cannabinoid receptor 1 = Cannabinoid receptor 1 (Homo sapiens, UniProt P21554); format: cell membranes, Chem-1, Membrane; details: chem-1; also: in other assays of this panel Not Active means under 50% inhibition at 10 µM
[1] = biological target: T1, C-X-C chemokine receptor type 2 (Homo sapiens, UniProt P25025); format: cell membranes, Membrane; details: cho-k1; also: in other assays of this panel Not Active means under 50% inhibition at 10 µM
T1 sequence (P25025 whole entry): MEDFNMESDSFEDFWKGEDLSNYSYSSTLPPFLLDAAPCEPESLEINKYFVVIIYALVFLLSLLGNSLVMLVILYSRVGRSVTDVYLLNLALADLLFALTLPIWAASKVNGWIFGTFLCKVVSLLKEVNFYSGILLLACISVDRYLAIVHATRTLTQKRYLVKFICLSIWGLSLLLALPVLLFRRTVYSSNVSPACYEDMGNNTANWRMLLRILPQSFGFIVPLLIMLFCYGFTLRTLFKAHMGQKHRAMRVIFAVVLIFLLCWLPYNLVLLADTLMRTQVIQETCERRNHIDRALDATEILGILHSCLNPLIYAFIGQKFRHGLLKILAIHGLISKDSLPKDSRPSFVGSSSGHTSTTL

Melanocortin receptor 4 = Melanocortin receptor 4 (Homo sapiens, UniProt P32245); format: cell membranes, Membrane; details: hek293; also: in other assays of this panel Not Active means under 50% inhibition at 10 µM
[2] = DRUGMATRIX: Phorbol Ester radioligand binding (ligand: [3H] PDBu); format: cell membranes, Mus musculus, ICR, Brain, Membrane; details: Not Active = under 50% inhibition at 10 µM
[3] = biological target: Mitogen-activated protein kinase 3 (Homo sapiens, UniProt P27361); test: DRUGMATRIX: Protein Serine/Threonine Kinase, ERK1 enzyme inhibition (substrate: Myelin Basic Protein); design: species or system Escherichia coli; details: Not Active = under 50% inhibition at 10 µM
Estrogen receptor beta = Estrogen receptor beta (Homo sapiens, UniProt Q92731); details: sf9; also: in other assays of this panel Not Active means under 50% inhibition at 10 µM
Glucocorticoid receptor = biological target: T2, Glucocorticoid receptor (Homo sapiens, UniProt P04150); details: hela s3; also: in other assays of this panel Not Active means under 50% inhibition at 10 µM
T2 sequence (P04150 whole entry): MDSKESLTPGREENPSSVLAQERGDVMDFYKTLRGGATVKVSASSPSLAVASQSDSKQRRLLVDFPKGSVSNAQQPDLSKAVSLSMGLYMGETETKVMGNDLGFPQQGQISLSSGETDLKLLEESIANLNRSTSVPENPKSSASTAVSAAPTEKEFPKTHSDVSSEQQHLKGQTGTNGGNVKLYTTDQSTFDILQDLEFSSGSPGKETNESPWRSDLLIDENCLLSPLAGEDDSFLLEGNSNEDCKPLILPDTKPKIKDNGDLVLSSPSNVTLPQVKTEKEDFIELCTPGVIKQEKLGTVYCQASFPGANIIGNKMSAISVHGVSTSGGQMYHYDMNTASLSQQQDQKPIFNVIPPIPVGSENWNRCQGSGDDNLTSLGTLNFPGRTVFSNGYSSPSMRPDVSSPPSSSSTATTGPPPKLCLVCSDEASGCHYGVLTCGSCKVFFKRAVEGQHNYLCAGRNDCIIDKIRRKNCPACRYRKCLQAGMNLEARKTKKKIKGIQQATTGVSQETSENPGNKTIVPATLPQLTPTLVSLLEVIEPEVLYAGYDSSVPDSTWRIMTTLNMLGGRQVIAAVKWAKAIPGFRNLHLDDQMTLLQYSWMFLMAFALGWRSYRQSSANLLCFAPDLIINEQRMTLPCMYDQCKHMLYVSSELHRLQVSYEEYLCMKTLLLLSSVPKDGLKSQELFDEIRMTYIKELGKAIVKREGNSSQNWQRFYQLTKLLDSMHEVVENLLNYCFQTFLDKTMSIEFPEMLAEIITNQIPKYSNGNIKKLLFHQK

Mitogen-activated protein kinase 3, sequence (P27361 whole entry): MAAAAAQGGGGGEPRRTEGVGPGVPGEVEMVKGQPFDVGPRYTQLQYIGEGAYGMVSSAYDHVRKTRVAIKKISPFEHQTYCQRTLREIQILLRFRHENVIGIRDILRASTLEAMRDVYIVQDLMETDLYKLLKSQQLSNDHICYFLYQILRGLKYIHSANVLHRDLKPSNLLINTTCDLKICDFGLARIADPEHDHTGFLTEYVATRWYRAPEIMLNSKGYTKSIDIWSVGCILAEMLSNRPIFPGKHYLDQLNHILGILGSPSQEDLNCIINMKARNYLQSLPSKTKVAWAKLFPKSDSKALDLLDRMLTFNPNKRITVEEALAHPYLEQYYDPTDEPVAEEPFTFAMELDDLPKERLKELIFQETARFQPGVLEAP
Melanocortin receptor 4, sequence (P32245 whole entry): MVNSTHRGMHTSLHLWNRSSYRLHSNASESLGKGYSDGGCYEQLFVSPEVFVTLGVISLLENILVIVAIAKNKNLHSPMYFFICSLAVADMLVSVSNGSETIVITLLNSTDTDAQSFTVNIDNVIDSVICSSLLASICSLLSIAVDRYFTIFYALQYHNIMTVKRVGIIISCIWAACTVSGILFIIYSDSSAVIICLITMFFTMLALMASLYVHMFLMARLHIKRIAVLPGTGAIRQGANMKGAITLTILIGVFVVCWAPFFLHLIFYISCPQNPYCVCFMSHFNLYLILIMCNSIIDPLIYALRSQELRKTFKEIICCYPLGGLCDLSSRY
Estrogen receptor beta, sequence (Q92731 whole entry): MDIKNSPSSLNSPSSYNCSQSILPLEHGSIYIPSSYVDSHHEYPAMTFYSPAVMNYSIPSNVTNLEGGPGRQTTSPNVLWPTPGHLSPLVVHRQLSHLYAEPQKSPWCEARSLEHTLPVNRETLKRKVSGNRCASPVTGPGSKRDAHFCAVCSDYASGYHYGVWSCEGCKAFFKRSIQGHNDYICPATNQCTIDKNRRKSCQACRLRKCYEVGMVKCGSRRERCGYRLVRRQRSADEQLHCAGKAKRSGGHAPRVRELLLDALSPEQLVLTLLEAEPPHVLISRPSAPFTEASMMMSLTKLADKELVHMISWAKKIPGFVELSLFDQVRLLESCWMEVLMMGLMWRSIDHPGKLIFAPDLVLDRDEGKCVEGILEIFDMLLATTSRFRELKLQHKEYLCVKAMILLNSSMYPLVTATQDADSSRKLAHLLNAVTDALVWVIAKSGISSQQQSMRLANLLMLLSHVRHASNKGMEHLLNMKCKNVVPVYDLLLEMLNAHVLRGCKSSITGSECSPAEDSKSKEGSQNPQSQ
Cannabinoid receptor 1, sequence (P21554 whole entry): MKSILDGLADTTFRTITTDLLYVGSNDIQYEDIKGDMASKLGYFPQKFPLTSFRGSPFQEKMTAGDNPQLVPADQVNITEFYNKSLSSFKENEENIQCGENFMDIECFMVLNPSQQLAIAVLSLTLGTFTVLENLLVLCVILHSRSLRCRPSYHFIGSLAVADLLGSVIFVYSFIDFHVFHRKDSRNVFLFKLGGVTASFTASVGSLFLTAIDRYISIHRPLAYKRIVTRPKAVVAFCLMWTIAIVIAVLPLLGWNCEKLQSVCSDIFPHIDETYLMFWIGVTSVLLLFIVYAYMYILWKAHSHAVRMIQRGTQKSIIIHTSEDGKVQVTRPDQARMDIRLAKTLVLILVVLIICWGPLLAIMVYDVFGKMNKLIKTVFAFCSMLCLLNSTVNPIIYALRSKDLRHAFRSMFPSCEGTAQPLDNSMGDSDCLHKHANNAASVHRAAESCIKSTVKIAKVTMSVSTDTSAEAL

O=C(O)CC(O)(CC(=O)O)C(=O)O [CITRIC ACID]
Not Active: IC50 (Cannabinoid receptor 1) | IC50 [1] | IC50 (Melanocortin receptor 4) | IC50 [2] | Ki [2] | IC50 [3] | IC50 (Estrogen receptor beta) | IC50 (Glucocorticoid receptor)

C[C@H]1O[C@H](O[C@H]2[C@H](O)[C@@H](O)[C@@H](O[C@H]3[C@H](O)[C@@H](O)C(O)O[C@@H]3CO)O[C@@H]2CO)[C@H](O)[C@@H](O)[C@@H]1N[C@H]1C=C(CO)[C@@H](O)[C@H](O)[C@H]1O (some centres not stated) [ACARBOSE]
Not Active: IC50 (Cannabinoid receptor 1) | IC50 [1] | IC50 (Melanocortin receptor 4) | IC50 [2] | Ki [2] | IC50 [3] | IC50 (Estrogen receptor beta) | IC50 (Glucocorticoid receptor)

CC(O)COC[C@H]1O[C@@H]2O[C@H]3[C@H](O)[C@@H](O)[C@@H](O[C@H]4[C@H](O)[C@@H](O)[C@@H](O[C@H]5[C@H](O)[C@@H](O)[C@@H](O[C@H]6[C@H](O)[C@@H](O)[C@@H](O[C@H]7[C@H](O)[C@@H](O)[C@@H](O[C@H]8[C@H](O)[C@@H](O)[C@@H](O[C@H]1[C@H](O)[C@H]2O)O[C@@H]8COCC(C)O)O[C@@H]7COCC(C)O)O[C@@H]6COCC(C)O)O[C@@H]5COCC(C)O)O[C@@H]4COCC(C)O)O[C@@H]3COCC(C)O (stereo partly drawn) [2-HYDROXYPROPYL-BETA-CYCLODEXTRIN]
Not Active: IC50 (Cannabinoid receptor 1) | IC50 [1] | IC50 (Melanocortin receptor 4) | IC50 [2] | Ki [2] | IC50 [3] | IC50 (Estrogen receptor beta) | IC50 (Glucocorticoid receptor)

N[C@@H](Cn1ccc(=O)c(O)c1)C(=O)O [L-MIMOSINE]
Not Active: IC50 (Cannabinoid receptor 1) | IC50 [1] | IC50 (Melanocortin receptor 4) | IC50 [2] | Ki [2] | IC50 [3] | IC50 (Estrogen receptor beta) | IC50 (Glucocorticoid receptor)

O=C(O)c1cc(-c2ccc(F)cc2F)ccc1O [DIFLUNISAL]
Not Active: IC50 (Cannabinoid receptor 1) | IC50 [1] | IC50 (Melanocortin receptor 4) | IC50 [2] | Ki [2] | IC50 [3] | IC50 (Estrogen receptor beta) | IC50 (Glucocorticoid receptor)

CN1CCN(C(c2ccccc2)c2ccccc2)CC1 [CYCLIZINE]
Not Active: IC50 (Cannabinoid receptor 1) | IC50 [1] | IC50 (Melanocortin receptor 4) | IC50 [2] | Ki [2] | IC50 [3] | IC50 (Estrogen receptor beta) | IC50 (Glucocorticoid receptor)

CC(C)(C)NCC(O)COc1cccc2c1CC(O)C(O)C2 (configuration not stated) [NADOLOL]
Not Active: IC50 (Cannabinoid receptor 1) | IC50 [1] | IC50 (Melanocortin receptor 4) | IC50 [2] | Ki [2] | IC50 [3] | IC50 (Estrogen receptor beta) | IC50 (Glucocorticoid receptor)

CCCNC(=O)NS(=O)(=O)c1ccc(Cl)cc1 [CHLORPROPAMIDE]
Not Active: IC50 (Cannabinoid receptor 1) | IC50 [1] | IC50 (Melanocortin receptor 4) | IC50 [2] | Ki [2] | IC50 [3] | IC50 (Estrogen receptor beta) | IC50 (Glucocorticoid receptor)

Nc1cc(-c2ccncc2)c[nH]c1=O [INAMRINONE]
Not Active: IC50 (Cannabinoid receptor 1) | IC50 [1] | IC50 (Melanocortin receptor 4) | IC50 [2] | Ki [2] | IC50 [3] | IC50 (Estrogen receptor beta) | IC50 (Glucocorticoid receptor)
